Patent US20200247800A1, “SUBSTITUTED BICYCLIC HETEROCYCLIC COMPOUNDS AS NADPH OXIDASE INHIBITORS” (Glenmark Pharmaceuticals S.A., priority 2017, published 2020)
pIC50: −log10 of the molar value.

Biological target: T1, human NOX4 (Homo sapiens, UniProt Q9NPH5)
T1 construct: expressed in transfected cells; membrane fraction used
T1 sequence (Q9NPH5 1-578): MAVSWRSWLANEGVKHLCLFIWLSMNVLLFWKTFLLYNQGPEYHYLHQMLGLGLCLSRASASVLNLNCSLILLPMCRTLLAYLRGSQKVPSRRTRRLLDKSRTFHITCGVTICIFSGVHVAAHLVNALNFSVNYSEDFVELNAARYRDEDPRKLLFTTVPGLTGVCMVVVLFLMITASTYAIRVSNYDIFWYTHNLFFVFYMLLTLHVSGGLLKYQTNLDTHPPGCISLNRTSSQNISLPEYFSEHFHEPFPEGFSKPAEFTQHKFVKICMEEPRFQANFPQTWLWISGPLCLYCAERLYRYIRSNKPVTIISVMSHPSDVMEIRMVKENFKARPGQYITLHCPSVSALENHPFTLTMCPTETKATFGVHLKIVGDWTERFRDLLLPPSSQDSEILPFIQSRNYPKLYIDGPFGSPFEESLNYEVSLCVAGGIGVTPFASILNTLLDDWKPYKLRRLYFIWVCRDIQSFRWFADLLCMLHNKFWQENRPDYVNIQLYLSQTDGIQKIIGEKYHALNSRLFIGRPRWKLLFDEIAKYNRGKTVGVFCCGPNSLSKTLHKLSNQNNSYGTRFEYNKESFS
T1 sequence (P13498 1-195 partner): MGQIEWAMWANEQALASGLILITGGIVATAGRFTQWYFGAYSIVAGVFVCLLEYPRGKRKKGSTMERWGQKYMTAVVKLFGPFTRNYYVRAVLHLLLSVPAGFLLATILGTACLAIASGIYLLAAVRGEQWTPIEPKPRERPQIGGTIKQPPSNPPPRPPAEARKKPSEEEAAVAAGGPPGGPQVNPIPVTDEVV
Assay: Cell free membrane based in vitro NOX4 assay: H2O2 production by membranes expressing human NOX4, measured with Amplex Red
Type: biochemical
Details: for inhibition at 1 µM: 1.0 μM compound, read-out: Percentage inhibition at 1.0 μM; for inhibition at 10 µM: 10.0 μM compound, read-out: Percentage inhibition at 10.0 μM; for pIC50: class symbols
In short: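 Membranes from HEK cells stably overexpressing human NOX4 were preincubated 20 min with inhibitor in pH 7.4 HEPES buffer containing HRP and Amplex Red, then NADPH was added. H2O2 was followed for 10 min by fluorescence (ex 544/em 590 nm). IC50 from nonlinear regression of % maximal uninhibited response.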

CCn1nc(C)c2c(=O)c(O)c(-c3c(F)cccc3Cl)[nH]c21 [Example 123, 6-(2-Chloro-6-fluorophenyl)-1-ethyl-5-hydroxy-3-methyl-1,7-dihydro-4H-pyrazolo[3,4-b]pyridin-4-one]
inhibition at 1 µM: 75.5%
inhibition at 10 µM: 76.2%
pIC50: < 6.82

Cc1nn(C2CC2)c2[nH]c(-c3c(F)cccc3Cl)c(O)c(=O)c12 [Example 124, 6-(2-Chloro-6-fluorophenyl)-1-cyclopropyl-5-hydroxy-3-methyl-1,7-dihydro-4H-pyrazolo[3,4-b]pyridin-4-one]
inhibition at 1 µM: 69.3%
inhibition at 10 µM: 81.9%
pIC50: < 6.82

Cc1nn(C2CC2)c2[nH]c(-c3ccccc3Cl)c(O)c(=O)c12 [Example 125, 6-(2-Chlorophenyl)-1-cyclopropyl-5-hydroxy-3-methyl-1,7-dihydro-4H-pyrazolo[3,4-b]pyridin-4-one]
inhibition at 1 µM: 58.4%
inhibition at 10 µM: 66.8%

Cc1cc(F)ccc1-n1nc(C)c2c(=O)c(O)c(-c3ccccc3Cl)[nH]c21 [Example 126, 6-(2-Chlorophenyl)-1-(4-fluoro-2-methylphenyl)-5-hydroxy-3-methyl-1,7-dihydro-4H-pyrazolo[3,4-b]pyridin-4-one]
inhibition at 1 µM: 63.4%
inhibition at 10 µM: 76.3%
pIC50: < 6.82

Cc1nn(C2CCCC2)c2[nH]c(-c3c(F)cccc3F)c(O)c(=O)c12 [Example 127, 1-Cyclopentyl-6-(2,6-difluorophenyl)-5-hydroxy-3-methyl-1,7-dihydro-4H-pyrazolo[3,4-b]pyridin-4-one]
inhibition at 1 µM: 87.5%
inhibition at 10 µM: 89.5%
pIC50: > 7.30

Cc1nn(C2CCOCC2)c2[nH]c(-c3c(F)cccc3F)c(O)c(=O)c12 [Example 128, 6-(2,6-Difluorophenyl)-5-hydroxy-3-methyl-1-(tetrahydro-2H-pyran-4-yl)-1,7-dihydro-4H-pyrazolo[3,4-b]pyridin-4-one]
inhibition at 1 µM: 88.1%
inhibition at 10 µM: 92.1%
pIC50: 7.00 to 7.30

CCn1nc(C)c2c(=O)c(O)c(-c3cc(CNC(=O)C(C)(C)C)ccc3Cl)[nH]c21 [Example 129, N-(4-Chloro-3-(1-ethyl-5-hydroxy-3-methyl-4-oxo-4,7-dihydro-1H-pyrazolo[3,4-b]pyridin-6-yl)benzyl)pivalamide]
inhibition at 1 µM: 85.1%
inhibition at 10 µM: 74.4%
pIC50: 7.00 to 7.30

O=c1c(O)c(-c2ccccc2Cl)[nH]c2c1c(C(F)(F)F)nn2C1CCOCC1 [Example 130, 6-(2-Chlorophenyl)-5-hydroxy-1-(tetrahydro-2H-pyran-4-yl)-3-(trifluoromethyl)-1H-pyrazolo[3,4-b]pyridin-4(7H)-one]
inhibition at 1 µM: 69.6%
inhibition at 10 µM: 98.5%
pIC50: < 6.82

Cc1nn(C2CCC2)c2[nH]c(-c3c(F)cccc3F)c(O)c(=O)c12 [Example 131, 1-Cyclobutyl-6-(2,6-difluorophenyl)-5-hydroxy-3-methyl-1H-pyrazolo[3,4-b]pyridin-4(7H)-one]
inhibition at 1 µM: 92.4%
inhibition at 10 µM: 90.2%
pIC50: > 7.30

Cn1nc(C(F)(F)F)c2c(=O)c(O)c(-c3cc(CNC(=O)C(C)(C)C)ccc3Cl)[nH]c21 [Example 132, N-(4-Chloro-3-(5-hydroxy-1-methyl-4-oxo-3-(trifluoromethyl)-4,7-dihydro-1H-pyrazolo[3,4-b]pyridin-6-yl)benzyl)pivalamide]
inhibition at 1 µM: 74.8%
inhibition at 10 µM: 88.7%
pIC50: < 6.82

Cc1nn(C2CC2)c2[nH]c(-c3cc(CNC(=O)C(C)(C)C)ccc3Cl)c(O)c(=O)c12 [Example 133, N-(4-Chloro-3-(1-cyclopropyl-5-hydroxy-3-methyl-4-oxo-4,7-dihydro-1H-pyrazolo[3,4-b]pyridin-6-yl)benzyl)pivalamide]
inhibition at 1 µM: 77.3%
inhibition at 10 µM: 88.8%
pIC50: < 6.82

O=c1c(O)c(-c2c(F)cccc2F)[nH]c2c1c(C(F)(F)F)nn2C1CCOCC1 [Example 134, 6-(2,6-Difluorophenyl)-5-hydroxy-1-(tetrahydro-2H-pyran-4-yl)-3-(trifluoromethyl)-1,7-dihydro-4H-pyrazolo[3,4-b]pyridin-4-one]
inhibition at 1 µM: 57.1%
inhibition at 10 µM: 88.2%
pIC50: < 6.82

Cn1nc(C(F)(F)F)c2c(=O)c(O)c(-c3cc(CNC(=O)C(C)(C)C)ccc3F)[nH]c21 [Example 135, N-(4-Fluoro-3-(5-hydroxy-1-methyl-4-oxo-3-(trifluoromethyl)-4,7-dihydro-1H-pyrazolo[3,4-b]pyridin-6-yl)benzyl)pivalamide]
inhibition at 1 µM: 71%
inhibition at 10 µM: 90.7%
pIC50: < 6.82

Cc1nn(C2CCCCC2)c2[nH]c(-c3c(F)cccc3F)c(O)c(=O)c12 [Example 136, 1-Cyclohexyl-6-(2,6-difluorophenyl)-5-hydroxy-3-methyl-1,7-dihydro-4H-pyrazolo[3,4-b]pyridin-4-one]
inhibition at 1 µM: 85%
inhibition at 10 µM: 87.5%
pIC50: > 7.30

Cc1nn(C2CCC(F)(F)CC2)c2[nH]c(-c3c(F)cccc3F)c(O)c(=O)c12 [Example 137, 1-(4,4-Difluorocyclohexyl)-6-(2,6-difluorophenyl)-5-hydroxy-3-methyl-1H-pyrazolo[3,4-b]pyridin-4(7H)-one]
inhibition at 1 µM: 89.5%
inhibition at 10 µM: 86.3%
pIC50: 7.00 to 7.30

CCn1nc(C)c2c(=O)c(O)c(-c3cc(CNC(=O)C(C)(C)C)ccc3F)[nH]c21 [Example 138, N-(3-(1-Ethyl-5-hydroxy-3-methyl-4-oxo-4,7-dihydro-1H-pyrazolo[3,4-b]pyridin-6-yl)-4-fluorobenzyl)pivalamide]
inhibition at 1 µM: 92.6%
inhibition at 10 µM: 85%
pIC50: < 6.82

Cc1nn(-c2ccc(F)cc2Cl)c2[nH]c(-c3c(F)cccc3F)c(O)c(=O)c12 [Example 139, 1-(2-Chloro-4-fluorophenyl)-6-(2,6-difluorophenyl)-5-hydroxy-3-methyl-1H-pyrazolo[3,4-b]pyridin-4(7H)-one]
inhibition at 1 µM: 99%
inhibition at 10 µM: 100%
pIC50: 7.00 to 7.30

CCc1nn(C2CC2)c2[nH]c(-c3c(F)cccc3F)c(O)c(=O)c12 [Example 140, 1-Cyclopropyl-6-(2,6-difluorophenyl)-3-ethyl-5-hydroxy-1H-pyrazolo[3,4-b]pyridin-4(7H)-one]
inhibition at 1 µM: 100%
inhibition at 10 µM: 100%
pIC50: 7.00 to 7.30

Cc1nn(-c2ccc(F)cc2Cl)c2[nH]c(-c3ccccc3Cl)c(O)c(=O)c12 [Example 141, 1-(2-Chloro-4-fluorophenyl)-6-(2-chlorophenyl)-5-hydroxy-3-methyl-1H-pyrazolo[3,4-b]pyridin-4(7H)-one]
inhibition at 1 µM: 77.9%
inhibition at 10 µM: 95.1%
pIC50: < 6.82

Cc1nn(C2CCOCC2)c2[nH]c(-c3cc(CNC(=O)C(C)(C)C)ccc3Cl)c(O)c(=O)c12 [Example 142, N-(4-Chloro-3-(5-hydroxy-3-methyl-4-oxo-1-(tetrahydro-2H-pyran-4-yl)-4,7-dihydro-1H-pyrazolo[3,4-b]pyridin-6-yl)benzyl)pivalamide]
inhibition at 1 µM: 80.4%
inhibition at 10 µM: 69.9%
pIC50: < 6.82

CCn1nc(C)c2c(=O)c(O)c(-c3ccccc3C(F)(F)F)[nH]c21 [Example 143, 1-Ethyl-5-hydroxy-3-methyl-6-(2-(trifluoromethyl)phenyl)-1H-pyrazolo[3,4-b]pyridin-4(7H)-one]
inhibition at 1 µM: 73.1%
pIC50: 6.82 to 7.00
